# Reference: ChEMBL document CHEMBL1201862, “PubChem BioAssay data set” (2004)
#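 Test compounds were applied to cells in 96-well plates for 48 hours at 5 doses. GI50 = concentration required for 50% inhibition of growth.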 Activity calls are given as the source filed them. Rule as the data show it: active = GI50 up to about 1.1 µM and inactive = higher.
# What was measured:
# Experiment in all cases: growth of human tumour cells (NCI), 48 h
# [1] = tested on: SF-295
# [2] = tested on: UO-31
# [3] = tested on: MDA-N
# [4] = tested on: HCT-15
# [5] = tested on: Malme-3M
# [6] = tested on: IGROV-1
# [7] = tested on: PC-3
# [8] = tested on: A498
# [9] = tested on: HT-29
# [10] = tested on: OVCAR-8
# [11] = tested on: TK-10
# [12] = tested on: HOP-62
# [13] = tested on: RXF 393
# [14] = tested on: MOLT-4
# [15] = tested on: OVCAR-4
# [16] = tested on: M14
# [17] = tested on: BT-549
# [18] = tested on: DU-145
# [19] = tested on: HCC 2998
Structure (SMILES),GI50 [1],GI50 [2],GI50 [3],GI50 [4] [µM],GI50 [5],GI50 [6],GI50 [7],GI50 [8],GI50 [9],GI50 [10],GI50 [11],GI50 [12],GI50 [13],GI50 [14],GI50 [15],GI50 [16],GI50 [17],GI50 [18],GI50 [19]
CC1=NN(c2ccccc2)C(=O)C1/N=N/c1ccc(S(N)(=O)=O)cc1 (stereo not drawn),> 100 µM (inactive),> 100 µM (inactive),> 100 µM (inactive),> 100,> 100 µM (inactive),> 100 µM (inactive),> 100 µM (inactive),> 100 µM (inactive),> 100 µM (inactive),> 100 µM (inactive),> 100 µM (inactive),> 100 µM (inactive),> 100 µM (inactive),> 100 µM (inactive),> 100 µM (inactive),> 100 µM (inactive),> 100 µM (inactive),> 100 µM (inactive),
O=C(CC(C(=O)O)N1CCOCC1)c1ccccc1 (stereo not drawn),41.2 µM (inactive),,17.8 µM (inactive),19.5,18.8 µM (inactive),26.2 µM (inactive),16.5 µM (inactive),25.1 µM (inactive),17.1 µM (inactive),30.8 µM (inactive),15.9 µM (inactive),27.4 µM (inactive),18.4 µM (inactive),15.2 µM (inactive),23 µM (inactive),14.6 µM (inactive),18.6 µM (inactive),23.6 µM (inactive),
Cc1ccc(S(=O)(=O)OC2CC(C(C)(C)C)CCC2c2ccccc2)cc1 (stereo not drawn),42.1 µM (inactive),> 100 µM (inactive),99.8 µM (inactive),> 100,,72.8 µM (inactive),70 µM (inactive),> 100 µM (inactive),32.1 µM (inactive),> 100 µM (inactive),> 100 µM (inactive),53 µM (inactive),89.7 µM (inactive),44.6 µM (inactive),34.9 µM (inactive),88.7 µM (inactive),> 100 µM (inactive),> 100 µM (inactive),
Cn1c2ccccc2c(=NNc2ccc(S(N)(=O)=O)cc2)c2ccccc21,13.6 µM (inactive),10.7 µM (inactive),15.9 µM (inactive),16.2,17.9 µM (inactive),17.7 µM (inactive),9.75 µM (inactive),,17.6 µM (inactive),16.2 µM (inactive),15 µM (inactive),15.3 µM (inactive),16.2 µM (inactive),3.95 µM (inactive),14.3 µM (inactive),24 µM (inactive),8.39 µM (inactive),21.6 µM (inactive),14.9 µM (inactive)
Cc1ccc(/C=C2\N=C(N3CCOCC3)NC2=O)cc1,> 100 µM (inactive),> 100 µM (inactive),> 100 µM (inactive),> 100,> 100 µM (inactive),> 100 µM (inactive),> 100 µM (inactive),,> 100 µM (inactive),> 100 µM (inactive),> 100 µM (inactive),77.6 µM (inactive),> 100 µM (inactive),> 100 µM (inactive),> 100 µM (inactive),> 100 µM (inactive),> 100 µM (inactive),> 100 µM (inactive),> 100 µM (inactive)
O=C1CCCCCCCCCCC1CN1CCOCC1 (stereo not drawn),> 100 µM (inactive),> 100 µM (inactive),> 100 µM (inactive),> 100,> 100 µM (inactive),> 100 µM (inactive),> 100 µM (inactive),,,> 100 µM (inactive),> 100 µM (inactive),> 100 µM (inactive),> 100 µM (inactive),66.1 µM (inactive),> 100 µM (inactive),> 100 µM (inactive),> 100 µM (inactive),> 100 µM (inactive),> 100 µM (inactive)
N#CC(NC12CC3CC(CC(C3)C1)C2)c1ccc2c(c1)OCO2 (stereo not drawn),> 100 µM (inactive),> 100 µM (inactive),> 100 µM (inactive),> 100,> 100 µM (inactive),> 100 µM (inactive),> 100 µM (inactive),,> 100 µM (inactive),> 100 µM (inactive),> 100 µM (inactive),> 100 µM (inactive),> 100 µM (inactive),> 100 µM (inactive),> 100 µM (inactive),> 100 µM (inactive),> 100 µM (inactive),> 100 µM (inactive),> 100 µM (inactive)
C=C1CC(Cn2cc(C)c(=O)[nH]c2=O)(c2ccc(Cl)cc2)OC1=O (stereo not drawn),9.64 µM (inactive),12.9 µM (inactive),2.99 µM (inactive),0.867,1.88 µM (inactive),1.53 µM (inactive),3.08 µM (inactive),5.94 µM (inactive),1.69 µM (inactive),3.64 µM (inactive),1.68 µM (inactive),15.8 µM (inactive),,0.94 µM (active),1.72 µM (inactive),1.22 µM (inactive),1.51 µM (inactive),4.65 µM (inactive),3.8 µM (inactive)
NNC(=O)c1ccc(-n2nnc(C(=O)NN)c2C(=O)NN)cc1,> 100 µM (inactive),> 100 µM (inactive),> 100 µM (inactive),> 100,> 100 µM (inactive),,> 100 µM (inactive),,> 100 µM (inactive),> 100 µM (inactive),> 100 µM (inactive),> 100 µM (inactive),,> 100 µM (inactive),> 100 µM (inactive),> 100 µM (inactive),> 100 µM (inactive),> 100 µM (inactive),> 100 µM (inactive)
CC(=O)CSc1c(-c2ccccc2)c(=O)n(-c2ccccc2)c(=S)n1-c1ccccc1,> 100 µM (inactive),> 100 µM (inactive),> 100 µM (inactive),> 100,> 100 µM (inactive),> 100 µM (inactive),> 100 µM (inactive),,> 100 µM (inactive),> 100 µM (inactive),> 100 µM (inactive),> 100 µM (inactive),,47.4 µM (inactive),> 100 µM (inactive),> 100 µM (inactive),> 100 µM (inactive),> 100 µM (inactive),
CC(C)(C)c1cc(C(C)(C)C)c(P=C(Cl)Cl)c(C(C)(C)C)c1 (stereo not drawn),> 100 µM (inactive),> 100 µM (inactive),> 100 µM (inactive),> 100,> 100 µM (inactive),> 100 µM (inactive),> 100 µM (inactive),> 100 µM (inactive),> 100 µM (inactive),> 100 µM (inactive),> 100 µM (inactive),> 100 µM (inactive),,> 100 µM (inactive),> 100 µM (inactive),> 100 µM (inactive),> 100 µM (inactive),> 100 µM (inactive),> 100 µM (inactive)
CCOC(=O)C1C(c2ccc(OC)cc2)c2c(nn(-c3ccccc3)c2O)CC1(C)O (stereo not drawn),2.29 µM (inactive),11 µM (inactive),3.21 µM (inactive),14.3,> 100 µM (inactive),> 100 µM (inactive),7.5 µM (inactive),> 100 µM (inactive),28 µM (inactive),98.2 µM (inactive),50 µM (inactive),> 100 µM (inactive),,0.596 µM (active),96.6 µM (inactive),11 µM (inactive),0.0159 µM (active),38.8 µM (inactive),26.4 µM (inactive)
CC[C@]1(Cc2ccc(OC)c(OC)c2)C=[N+]([O-])O[C@H](OC2CCCC2(c2ccccc2)c2ccccc2)[C@@H]1OC(=O)c1ccccc1 (stereo partly drawn),14.1 µM (inactive),6.7 µM (inactive),8.17 µM (inactive),11.7,,3.67 µM (inactive),5.47 µM (inactive),,3.57 µM (inactive),3.71 µM (inactive),,9.89 µM (inactive),4.35 µM (inactive),2.63 µM (inactive),7.38 µM (inactive),8.13 µM (inactive),> 27.1 µM (inactive),10.6 µM (inactive),9.71 µM (inactive)
O=C1NC(N2CCCCC2)=N/C1=C\c1ccco1,> 100 µM (inactive),> 100 µM (inactive),> 100 µM (inactive),> 100,> 100 µM (inactive),54.7 µM (inactive),> 100 µM (inactive),,30.3 µM (inactive),> 100 µM (inactive),> 100 µM (inactive),> 100 µM (inactive),> 100 µM (inactive),> 100 µM (inactive),> 100 µM (inactive),> 100 µM (inactive),> 100 µM (inactive),> 100 µM (inactive),> 100 µM (inactive)
Cc1cc(/N=C/c2ccc(C#N)cc2)n(-c2ccccc2)n1,81.7 µM (inactive),> 100 µM (inactive),37.7 µM (inactive),50.8,> 100 µM (inactive),68.9 µM (inactive),89.1 µM (inactive),,47.8 µM (inactive),69 µM (inactive),> 100 µM (inactive),68.9 µM (inactive),> 100 µM (inactive),42.6 µM (inactive),> 100 µM (inactive),55.7 µM (inactive),93.3 µM (inactive),> 100 µM (inactive),> 100 µM (inactive)
O=C1Cc2c([nH]c3c(Cl)cccc23)-c2ccccc2N1,> 100 µM (inactive),> 100 µM (inactive),> 100 µM (inactive),> 100,> 100 µM (inactive),> 100 µM (inactive),> 100 µM (inactive),> 100 µM (inactive),> 100 µM (inactive),> 100 µM (inactive),> 100 µM (inactive),> 100 µM (inactive),,> 100 µM (inactive),> 100 µM (inactive),> 100 µM (inactive),> 100 µM (inactive),> 100 µM (inactive),
